Assay results: patent publication US10968193B2, “Antidiabetic bicyclic compounds” (Merck Sharp & Dohme Corp., priority 2014, dated 2021)

biological target: T1, human GPR40 (Homo sapiens, UniProt O14842); assay: Inositol Phosphate Turnover (IP1) Assay 3; type: cell-based; details: HEK cells stably expressing human GPR40
T1 construct: expressed in transfected cells; host or cells: HEK cells stably expressing the aequorin reporter
Outline: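 HEK cells stably expressing human GPR40, plated 16 h before, were treated with compound for 60 min at 37 °C in stimulation buffer. IP1 measured by HTRF (665/620 nm ratio) against an IP1 standard curve; activity normalized to a reference compound, EC50 from 4-parameter fit.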

T1 sequence (O14842 whole entry): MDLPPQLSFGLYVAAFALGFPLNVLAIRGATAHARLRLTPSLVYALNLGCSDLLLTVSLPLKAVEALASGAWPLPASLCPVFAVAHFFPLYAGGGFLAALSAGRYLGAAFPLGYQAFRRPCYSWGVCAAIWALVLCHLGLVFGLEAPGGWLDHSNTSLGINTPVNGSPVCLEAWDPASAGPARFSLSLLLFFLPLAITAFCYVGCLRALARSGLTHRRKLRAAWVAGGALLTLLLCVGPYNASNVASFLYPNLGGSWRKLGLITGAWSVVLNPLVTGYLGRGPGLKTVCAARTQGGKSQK

| Compound | EC50 |
| --- | --- |
| COc1cc(-c2ccc(C3CCc4ccc([C@H](C5CC5)[C@H](C)C(=O)O)cc4O3)cc2CN(C)C(C)C)ccn1 (stereo partly shown) [Example 286] | 11 nM |
| COc1cc(-c2ccc(C3CCc4ccc([C@H](C5CC5)[C@H](C)C(=O)O)c(F)c4O3)cc2CN2CCC[C@@H]2C)c(F)cn1 (single isomer, unassigned) [Example 213] | 1.4 nM |
| CCOc1cc(-c2ccc(C3CCc4ccc([C@H](C5CC5)[C@H](C)C(=O)O)cc4O3)cc2CN(CC)CC)c(F)cn1 (single isomer, unassigned) [Example 172, (2S, 3R)-3-cyclopropyl-3-((S or R)-2-(3-((diethylamino)methyl)-4-(2-ethoxy-5-fluoropyridin-4-yl)phenyl)chroman-7-yl)-2-methylpropanoic acid] | 2.3 nM |
| COc1cc(-c2ccc([C@@H]3CCc4ccc([C@H](C5CC5)[C@H](C)C(=O)O)cc4O3)cc2CNC(C)C)c(F)cn1 [Example 232] | 36 nM |
| CCN(Cc1cc(C2CCc3ccc([C@H](C4CC4)[C@H](C)C(=O)O)cc3O2)c(F)cc1-c1ccnc(OC)c1)C(C)C (single isomer, unassigned) [Example 185] | 4.4 nM |
| COc1cc(-c2ccc(C3CCc4ccc([C@H](C5CC5)[C@H](C)C(=O)O)cc4O3)c(CN3CCCC3)c2)ccn1 (single isomer, unassigned) [Example 112b] | 273 nM |
| COc1cc(-c2ccc(C3CCc4ccc([C@H](C5CC5)[C@H](C)C(=O)O)cc4O3)c(CN3CCCC[C@H]3C)c2)c(F)cn1 (single isomer, unassigned) [Example 130a] | 8.7 nM |
| COc1cc(-c2ccc(C3CCc4ccc([C@H](C5CC5)[C@H](C)C(=O)O)cc4O3)cc2CN2CCCC23COC3)c(F)cn1 (stereo partly shown) [Example 265] | 0.2 nM |
| COc1cc(-c2ccc(C3CCc4ccc([C@H](C5CC5)[C@H](C)C(=O)O)cc4O3)c(CN3CCCCC34CC4)c2)ccn1 (single isomer, unassigned) [Example 224] | 11 nM |
| COc1cc(-c2ccc(C3CCc4ccc([C@H](C5CC5)[C@H](C)C(=O)O)cc4O3)cc2CN(C)C(C)(C)C)c(C#N)cn1 (single isomer, unassigned) [Example 194] | 1.1 nM |
| CCOc1cc(-c2ccc(C3CCc4ccc([C@H](C5CC5)[C@H](C)C(=O)O)cc4O3)cc2CN2CCCC2)c(Cl)cn1 (single isomer, unassigned) [Example 218] | 10 nM |
| COc1cc(-c2ccc(C3CCc4ccc([C@H](C5CC5)[C@H](C)C(=O)O)cc4O3)c(CN3CCC[C@@H]3C)c2)c(F)cn1 (single isomer, unassigned) [Example 129a] | 0.25 nM |
| CCN(CC)C(C)c1cc(C2CCc3ccc([C@H](C4CC4)[C@H](C)C(=O)O)cc3O2)ccc1-c1cc(OC)ncc1F (single isomer, unassigned) [Example 245] | 5.4 nM |
| CCN(CC)Cc1cc(C2CCc3ccc([C@H](C4CC4)[C@H](C)C(=O)O)cc3O2)ccc1-c1ccnc(OC)c1 (single isomer, unassigned) [Example 283] | 4.4 nM |
| COc1cc(-c2ccc(C3CCc4ccc([C@H](C5CC5)[C@H](C)C(=O)O)c(F)c4O3)cc2CN2CCC[C@H]2C)c(F)cn1 (single isomer, unassigned) [Example 210] | 3.1 nM |
| COc1cc(-c2ccc(C3CCc4ccc([C@H](C5CC5)[C@H](C)C(=O)O)cc4O3)cc2CN2[C@H](C)CCC[C@@H]2C)c(F)cn1 (stereo partly shown) [Example 259] | 0.2 nM |
| CCN(CC)Cc1nc(C2CCc3ccc([C@H](C4CC4)[C@H](C)C(=O)O)cc3O2)ccc1-c1cc(OC)ncc1F (single isomer, unassigned) [Example 89] | 0.9 nM |
| COc1cc(-c2ccc(C3CCc4ccc([C@H](C5CC5)[C@H](C)C(=O)O)c(F)c4O3)cc2CN2CCCC2(C)C)c(F)cn1 (single isomer, unassigned) [Example 207] | 1.3 nM |
| CCN(CC)Cc1cc(C2CCc3ccc([C@H](C4CC4)[C@H](C)C(=O)O)cc3O2)c(F)cc1-c1ccnc(OC)c1 (single isomer, unassigned) [Example 182] | 16 nM |
| COc1cc(-c2ccc(C3CCc4ccc([C@H](C5CC5)[C@H](C)C(=O)O)cc4O3)cc2CN(C(C)C)C(C)(C)C)c(F)cn1 (stereo partly shown) [Example 229] | 0.07 nM |
| COc1cc(-c2ccc(C3CCc4ccc([C@H](C5CC5)[C@H](C)C(=O)O)cc4O3)c(CN3CCCC3(C)C)c2)ccn1 (single isomer, unassigned) [Example 111b] | 0.4 nM |
| COc1cc(-c2ccc(C3CCc4ccc([C@H](C5CC5)[C@H](C)C(=O)O)cc4O3)c(CN3CCC[C@@H]3C)c2)ccn1 (single isomer, unassigned) [Example 118a] | 0.6 nM |
| COc1cc(-c2ccc(C3CCc4ccc([C@H](C5CC5)[C@H](C)C(=O)O)cc4O3)cc2CNC(C)(C)C)c(F)cn1 (stereo partly shown) [Example 233] | 42 nM |
| COc1cc(-c2ccc(C3CCc4ccc([C@H](C5CC5)[C@H](C)C(=O)O)cc4O3)c(CN(C(C)C)C(C)C)c2)ccn1 (single isomer, unassigned) [Example 115b] | 5.3 nM |
| COc1cc(-c2ccc(C3CCc4ccc([C@H](C5CC5)[C@H](C)C(=O)O)cc4O3)c(CN3CCCC[C@H]3C)c2)c(F)cn1 (single isomer, unassigned) [Example 130b] | 0.06 nM |

| Compound | EC50 |
| --- | --- |
| COc1cc(-c2ccc(C3CCc4ccc([C@H](C5CC5)[C@H](C)C(=O)O)cc4O3)c(CN3CCCC[C@@H]3C)c2)ccn1 (stereo partly shown) [Example 121] | 0.4 nM |
| COc1cc(-c2ccc(C3CCc4ccc([C@H](C5CC5)[C@H](C)C(=O)O)cc4O3)c(CN3CCCC[C@@H]3C)c2)c(F)cn1 (stereo partly shown) [Example 131] | 0.09 nM |
| CCN(Cc1cc(C2CCc3ccc([C@H](C4CC4)[C@H](C)C(=O)O)cc3O2)ccc1-c1ccnc(OC)c1)C(C)C (stereo partly shown) [Example 287] | 3.3 nM |
| COc1cc(-c2ccc(C3CCc4ccc([C@H](C5CC5)[C@H](C)C(=O)O)cc4O3)cc2CN2C(C)(C)CCCC2(C)C)ccn1 (stereo partly shown) [Example 238] | 0.14 nM |
| COc1cc(-c2ccc(C3CCc4ccc([C@H](C5CC5)[C@H](C)C(=O)O)cc4O3)cc2CN(C(C)C)C(C)C)c(C#N)cn1 (stereo partly shown) [Example 292] | 0.1 nM |
| COc1cc(-c2ccc(C3CCc4ccc([C@H](C5CC5)[C@H](C)C(=O)O)cc4O3)c(F)c2CN2CCCC2)c(F)cn1 (single isomer, unassigned) [Example 219] | 2 nM |
| COc1cc(-c2ccc(C3CCc4ccc([C@H](C5CC5)[C@@H](C)C(=O)O)cc4O3)cc2CN(C(C)C)C(C)C)ccn1 (stereo partly shown) [Example 285] | 4 nM |
| CCOc1cc(-c2ccc(C3CCc4ccc([C@H](C5CC5)[C@H](C)C(=O)O)cc4O3)cc2CN2CCCC2)c(F)cn1 (single isomer, unassigned) [Example 174] | 27 nM |
| COc1cc(-c2ccc(C3CCc4ccc([C@H](C5CC5)[C@H](C)C(=O)O)cc4O3)c(CN3CCCCC3(C)C)c2)ccn1 (single isomer, unassigned) [Example 117a] | 0.4 nM |
| CCC1CCCCN1Cc1cc(C2CCc3ccc([C@H](C4CC4)[C@H](C)C(=O)O)cc3O2)ccc1-c1cc(OC)ncc1F (single isomer, unassigned) [Example 273b] | 0.3 nM |
| COc1cc(-c2ccc(C3CCc4ccc([C@H](C5CC5)[C@H](C)C(=O)O)c(F)c4O3)cc2CN2CCCC2(C)C)c(F)cn1 (single isomer, unassigned) [Example 206] | 1.3 nM |
| COc1cc(-c2ccc(C3CCc4ccc([C@H](C5CC5)[C@H](C)C(=O)O)cc4O3)cc2CN2CCCC23CCC3)c(F)cn1 (stereo partly shown) [Example 264] | 0.2 nM |
| COc1cc(-c2ccc(C3CCc4ccc([C@H](C5CC5)[C@H](C)C(=O)O)cc4O3)c(CN3[C@H](C)CC[C@@H]3C)c2)ccn1 (stereo partly shown) [Example 122] | 0.7 nM |
| COc1cc(-c2ccc(C3CCc4ccc([C@H](C5CC5)[C@H](C)C(=O)O)cc4O3)c(CN(C)C(C)(C)C)c2)c(F)cn1 (mixture of isomers) [Example 125] | 2.2 nM |
| CCN(CC)Cc1cc(C2CCc3ccc([C@H](C4CC4)[C@H](C)C(=O)O)cc3O2)ccc1-c1cc(OC)ncc1C#N (stereo partly shown) [Example 291] | 3.1 nM |
| COc1cc(-c2ccc(C3CCc4ccc([C@H](C5CC5)[C@H](C)C(=O)O)cc4O3)c(CN3CCC[C@@H]3C)c2)c(F)cn1 (single isomer, unassigned) [Example 129b] | 36 nM |
| COc1cc(-c2ccc(C3CCc4ccc([C@H](C5CC5)[C@H](C)C(=O)O)cc4O3)cc2CN2CCC(C(N)=O)CC2)c(F)cn1 (stereo partly shown) [Example 272] | 278 nM |
| CCN(Cc1cc(C2CCc3ccc([C@H](C4CC4)[C@H](C)C(=O)O)cc3O2)ccc1-c1cc(OC)ncc1F)C(C)C (stereo partly shown) [Example 255] | 0.3 nM |
| CCC1CCCCN1Cc1cc(C2CCc3ccc([C@H](C4CC4)[C@H](C)C(=O)O)cc3O2)ccc1-c1cc(OC)ncc1F (single isomer, unassigned) [Example 273a] | 0.08 nM |
| COc1cc(-c2ccc(C3CCc4ccc([C@H](C5CC5)[C@H](C)C(=O)O)cc4O3)c(CN3CCCC[C@H]3C)c2)ccn1 (single isomer, unassigned) [Example 120a] | 0.4 nM |
| COc1cc(-c2ccc([C@@H]3CCc4ccc([C@H](C5CC5)[C@H](C)C(=O)O)cc4O3)cc2CN2CC3CC3C2)c(F)cn1 (stereo partly drawn) [Example 250, Sodium (2S,3R)-3-((2S)-2-(3-((3-azabicyclo[3.1.0]hexan-3-yl)methyl)-4-(5-fluoro-2-methoxypyridin-4-yl)phenyl)chroman-7-yl)-3-cyclopropyl-2-methylpropanoate] | 0.19 nM |
| COc1cc(-c2ccc(C3CCc4ccc([C@H](C5CC5)[C@H](C)C(=O)O)cc4O3)cc2CN2CCCC2)ccn1 (stereo partly shown) [Example 278] | 19 nM |
| COc1cc(-c2ccc(C3CCc4ccc([C@H](C5CC5)[C@H](C)C(=O)O)cc4O3)c(CN(C)C(C)(C)C)c2)c(F)cn1 (single isomer, unassigned) [Example 125b] | 12 nM |
| COc1cc(-c2ccc(C3CCc4ccc([C@H](C5CC5)[C@H](C)C(=O)O)cc4O3)cc2CN2CCCCC23CC3)c(C#N)cn1 (stereo partly shown) [Example 293] | 0.08 nM |
